Values quoted from earlier work, collected in patent US7060695B2, “Method to prevent vision loss” (QLT, Inc., priority 2001, dated 2006).

Test system: CNV
Conditions: approved protocol, re-treatment as frequently as every three months if CNV leakage

For verteporfin, the closure of neovasculature is listed as “closes neovasculature” and the “loss of visual acuity compared to placebo controls” value is listed as “prevents loss of visual acuity compared to placebo controls”.
